Test results taken from patent US11753407B2, “Compounds for treating spinal muscular atrophy” (PTC Therapeutics, Inc., priority 2012, dated 2023).

What was measured:
[1] = tested on: Smn protein in SMA patient fibroblast cells (GM03813); experiment: Smn protein assay in cultured cells (SMN HTRF); assay type: cell-based, human; settings: SMA patient fibroblast cells, 48 hours; for EC1.5x for Smn protein expression: 7-point concentration curve, SMN HTRF, concentration producing 1.5 times Smn protein vs DMSO vehicle control; for maximum fold (Fold) increase of Smn protein: 7-point concentration data, fold relative to vehicle control
Summary of the method: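 Patient-derived SMA fibroblasts are plated, given compound for 48 h, then lysed in RIPA buffer with protease inhibitors. Lysate Smn is detected by an anti-SMN d2/kryptate HTRF pair incubated overnight. The normalized ΔF is divided by the vehicle ΔF to give fold change, from which EC1.5× and maximum fold are taken.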

[2] = tested on: SMN2 minigene mRNA (SMN2-A minigene) in HEK293H cells; experiment: SMN2 minigene mRNA splicing RT-qPCR assay in cultured cells; assay type: cell-based, human; settings: Homo sapiens, HEK293-H; concentration increasing full length SMN2 mRNA 1.5-fold relative to vehicle-treated cells; HEK293H cells with SMN2-A minigene, 24 hours, 7-point concentration data; read-out: EC1.5x for production of full length SMN2 mRNA
Summary of the method: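 Cells are seeded, left to attach 4-6 h, then dosed with test compound across seven concentrations and incubated 24 h. Lysates undergo RT-qPCR with primers/probe specific to the exon 7-containing minigene transcript, co-amplified with GAPDH. Fold change over vehicle is calculated, and EC1.5× marks the 1.5-fold point.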

Compound | melting point | EC1.5x for Smn protein expression [1] | maximum fold (Fold) increase of Smn protein [1] | EC (1.5-fold increase) [2]
Cc1cn2cc(-c3cc(=O)n4cc(N5C[C@@H](C)N[C@@H](C)C5)ccc4n3)cc(C3CC3)c2n1 [Compound 717, 2-(8-cyclopropyl-2-methylimidazo[1,2-a]pyridin-6-yl)-7-[(3R,5S)-3,5-dimethylpiperazin-1-yl]-4H-pyrido[1,2-a]pyrimidin-4-one] | 205 to 209 °C | *** (an EC1.5× between >0.3 μM and ≤1 μM is indicated by three stars (***)) | ***** (a fold increase >1.65 is indicated by five stars (*****)) | 0.1 to 0.3 µM
Cc1cc(C2CCN(C3CC3)CC2)cn2c(=O)cc(-c3ccc4nn(C)cc4c3)nc12 [Compound 718, 7-(1-cyclopropylpiperidin-4-yl)-9-methyl-2-(2-methyl-2H-indazol-5-yl)-4H-pyrido[1,2-a]pyrimidin-4-one] | 226 to 231 °C | *** (an EC1.5× between >0.3 μM and ≤1 μM is indicated by three stars (***)) | **** (a fold increase between >1.5 and ≤1.65 is indicated by four stars (****)) | < 0.1 µM
CCN1CCC(c2cc(C)c3nc(-c4ccc5nn(C)cc5c4)cc(=O)n3c2)CC1 [Compound 719, 7-(1-ethylpiperidin-4-yl)-9-methyl-2-(2-methyl-2H-indazol-5-yl)-4H-pyrido[1,2-a]pyrimidin-4-one] | 237 to 241 °C | **** (an EC1.5x≤0.3 μM is indicated by four stars (****)) | **** (a fold increase between >1.5 and ≤1.65 is indicated by four stars (****)) | < 0.1 µM
Cc1cc(C2CCNCC2)cn2c(=O)cc(-c3ccc4nn(C)cc4c3)nc12 [Compound 721, 9-methyl-2-(2-methyl-2H-indazol-5-yl)-7-(piperidin-4-yl)-4H-pyrido[1,2-a]pyrimidin-4-one] | 211 °C | **** (an EC1.5x≤0.3 μM is indicated by four stars (****)) | ***** (a fold increase >1.65 is indicated by five stars (*****)) | < 0.1 µM
CCCc1nc(C)cn2nc(-c3cc(=O)n4cc(N5C[C@@H](C)N[C@@H](C)C5)ccc4n3)cc12 [Compound 729, 7-[(3R,5S)-3,5-dimethylpiperazin-1-yl]-2-(6-methyl-4-propylpyrazolo[1,5-a]pyrazin-2-yl)-4H-pyrido[1,2-a]pyrimidin-4-one] | 249 to 251 °C | *** (an EC1.5× between >0.3 μM and ≤1 μM is indicated by three stars (***)) | ***** (a fold increase >1.65 is indicated by five stars (*****)) | 0.1 to 0.3 µM
Cc1cn2cc(-c3cc(=O)n4cc(N5CCN(C(C)C)[C@H](C)C5)ccc4n3)cc2c(C)n1 [Compound 730, 2-(1,3-dimethylpyrrolo[1,2-a]pyrazin-7-yl)-7-[(3R)-3-methyl-4-(propan-2-yl)piperazin-1-yl]-4H-pyrido[1,2-a]pyrimidin-4-one] | 249 to 251 °C | **** (an EC1.5x≤0.3 μM is indicated by four stars (****)) | ***** (a fold increase >1.65 is indicated by five stars (*****)) | < 0.1 µM
Cc1cn2cc(-c3cc(=O)n4cc(N5CCC(C)(N)CC5)ccc4n3)cc2c(C)n1 [Compound 731, 7-(4-amino-4-methylpiperidin-1-yl)-2-(1,3-dimethylpyrrolo[1,2-a]pyrazin-7-yl)-4H-pyrido[1,2-a]pyrimidin-4-one] | 244 to 246 °C | **** (an EC1.5x≤0.3 μM is indicated by four stars (****)) | ***** (a fold increase >1.65 is indicated by five stars (*****)) | < 0.1 µM
CC[C@H]1CN(c2cc(C)c3nc(-c4cc5c(C)nc(C)cn5n4)cc(=O)n3c2)CCN1 [Compound 732, 2-(4,6-dimethylpyrazolo[1,5-a]pyrazin-2-yl)-7-[(3S)-3-ethylpiperazin-1-yl]-9-methyl-4H-pyrido[1,2-a]pyrimidin-4-one] | 243 to 251 °C | *** (an EC1.5× between >0.3 μM and ≤1 μM is indicated by three stars (***)) | **** (a fold increase between >1.5 and ≤1.65 is indicated by four stars (****)) | 0.3 to 1 µM
Cc1cn2cc(-c3cc(=O)n4cc(N5CCNCC5)ccc4n3)cc(C(F)(F)F)c2n1 [Compound 733, 2-[2-methyl-8-(trifluoromethyl)imidazo[1,2-a]pyridin-6-yl]-7-(piperazin-1-yl)-4H-pyrido[1,2-a]pyrimidin-4-one] | 325 to 328 °C | **** (an EC1.5x≤0.3 μM is indicated by four stars (****)) | ***** (a fold increase >1.65 is indicated by five stars (*****)) | < 0.1 µM

Second part, led by results:

melting point | Compound | EC1.5x for Smn protein expression [1] | maximum fold (Fold) increase of Smn protein [1] | EC (1.5-fold increase) [2]
254 to 264 °C | Cc1cn2nc(-c3cc(=O)n4cc(N5CCNCC5)cc(C)c4n3)cc2c(C)n1 [Compound 720, 2-(4,6-dimethylpyrazolo[1,5-a]pyrazin-2-yl)-9-methyl-7-(piperazin-1-yl)-4H-pyrido[1,2-a]pyrimidin-4-one] | **** (an EC1.5x≤0.3 μM is indicated by four stars (****)) | ***** (a fold increase >1.65 is indicated by five stars (*****)) | < 0.1 µM
249 to 252 °C | Cc1cn2nc(-c3cc(=O)n4cc(OC5CCN(C)CC5)ccc4n3)cc2c(C)n1 [Compound 722, 2-(4,6-dimethylpyrazolo[1,5-a]pyrazin-2-yl)-7-[(1-methylpiperidin-4-yl)oxy]-4H-pyrido[1,2-a]pyrimidin-4-one] | **** (an EC1.5x≤0.3 μM is indicated by four stars (****)) | ***** (a fold increase >1.65 is indicated by five stars (*****)) | < 0.1 µM
250 to 252 °C | CCCc1nc(C)cn2nc(-c3cc(=O)n4cc(N5CCNCC5)ccc4n3)cc12 [Compound 723, 2-(6-methyl-4-propylpyrazolo[1,5-a]pyrazin-2-yl)-7-(piperazin-1-yl)-4H-pyrido[1,2-a]pyrimidin-4-one] | **** (an EC1.5x≤0.3 μM is indicated by four stars (****)) | ***** (a fold increase >1.65 is indicated by five stars (*****)) | < 0.1 µM
246 to 248 °C | CCCc1nc(C)cn2nc(-c3cc(=O)n4cc(N5CCN(C)CC5)ccc4n3)cc12 [Compound 724, 7-(4-methylpiperazin-1-yl)-2-(6-methyl-4-propylpyrazolo[1,5-a]pyrazin-2-yl)-4H-pyrido[1,2-a]pyrimidin-4-one] | *** (an EC1.5× between >0.3 μM and ≤1 μM is indicated by three stars (***)) | ***** (a fold increase >1.65 is indicated by five stars (*****)) | 0.3 to 1 µM
231 to 233 °C | CCCc1nc(C)cn2nc(-c3cc(=O)n4cc(N5CCN(CC)CC5)ccc4n3)cc12 [Compound 725, 7-(4-ethylpiperazin-1-yl)-2-(6-methyl-4-propylpyrazolo[1,5-a]pyrazin-2-yl)-4H-pyrido[1,2-a]pyrimidin-4-one] | *** (an EC1.5× between >0.3 μM and ≤1 μM is indicated by three stars (***)) | ***** (a fold increase >1.65 is indicated by five stars (*****)) | 0.1 to 0.3 µM
225 to 227 °C | CCCc1nc(C)cn2nc(-c3cc(=O)n4cc(N5CCN(CCO)CC5)ccc4n3)cc12 [Compound 726, 7-[4-(2-hydroxyethyl)piperazin-1-yl]-2-(6-methyl-4-propylpyrazolo[1,5-a]pyrazin-2-yl)-4H-pyrido[1,2-a]pyrimidin-4-one] | ** (an EC1.5× between >1 μM and ≤3 μM is indicated by two stars (**)) | **** (a fold increase between >1.5 and ≤1.65 is indicated by four stars (****)) | 0.3 to 1 µM
195 to 197 °C | CCCc1nc(C)cn2nc(-c3cc(=O)n4cc(N5CCN[C@H](C)C5)ccc4n3)cc12 [Compound 727, 7-[(3R)-3-methylpiperazin-1-yl]-2-(6-methyl-4-propylpyrazolo[1,5-a]pyrazin-2-yl)-4H-pyrido[1,2-a]pyrimidin-4-one] | **** (an EC1.5x≤0.3 μM is indicated by four stars (****)) | ***** (a fold increase >1.65 is indicated by five stars (*****)) | < 0.1 µM
195 to 197 °C | CCCc1nc(C)cn2nc(-c3cc(=O)n4cc(N5CCN[C@@H](C)C5)ccc4n3)cc12 [Compound 728, 7-[(3S)-3-methylpiperazin-1-yl]-2-(6-methyl-4-propylpyrazolo[1,5-a]pyrazin-2-yl)-4H-pyrido[1,2-a]pyrimidin-4-one] | **** (an EC1.5x≤0.3 μM is indicated by four stars (****)) | ***** (a fold increase >1.65 is indicated by five stars (*****)) | 0.1 to 0.3 µM
